# Data: patent publication US20030157708A1, “Cell stimulation apparatus and a cell stimulation method” (priority 2001, published 2003)
# Columns and labels:
# Format in all cases: cell-based, mice
# [1] = test system: GABAA receptor β2 subunit; conditions: 7DIV granule cells, FIG. 10C; MK801 25 μM, CNQX 10 μM
# [2] = test system: cultured granule cells; experiment: Release of NRG into conditioned media, read by CREB-phosphorylation of granule cells; conditions: living cultured granule cells
# Experimental: In D, using cerebellar granule cells, CREB-phosphorylation was checked after the conditioned medium stimulation. Serum-starved cerebellar granule cells were treated (for 5 to 10 minutes) with conditioned media collected from pontine nuclus neuron and granule cell cultures. The conditioned media from pontine nuclei neurons was used for stimulation in a, b and c. In d, e and f, conditioned media were prepared from granule cell culture.
# To detect CREB phosphorylation, 7DIV cultured granule cells were fixed with 4% paraformaldehyde for 10 minutes after conditioned media stimulation for 10 to 15 minutes, and stained with a polyclonal anti-NRG β1 antibody, a polyclonal anti-PCREB antibody (BioLabs). […] Alexa™ dyes (Molecular probe) were used as a secondary antibody.
# The soluble forms released by PMA stimulation (60 minutes) were enriched using a spin column and added into the cultured granule cells. The stimulated granule cells were stained with anti-phospho-CREB antibody after fixation. The conditioned media from the pontine nuclei neurons was used for stimulation (a, b and c) and that from granule cell cultures for stimulation (d, e and f). […] The conditioned media (c and f) should have contained cleaved endogenous and recombinant NRG The subtraction of b from c and e from f indicated CREB-phosphorylation induced by sNRG that was from recombinant mNRG. […]
# [3] = test system: NMDA receptor NR2C subunit; conditions: 7DIV granule cells, MK801 25 μM
# [4] = test system: ErbB4; experiment: ErbB4 tyrosine-phosphorylation activity of conditioned media (immunoprecipitation / anti-phosphotyrosine blot); conditions: PMA stimulation for 60 minutes
# Experimental: In B, pontine nuclei neurons and granule cells with and without transfection of the transmembrane form of NRG were prepared and stimulated by PMA for 60 minutes and then the conditioned media were collected. Tyrosin-phosphorylation activity of the conditioned media was examined using cerebellar granule cells. The granule cell cultures were stimulated for 5 to 10 minutes with the conditioned media that were collected and concentrated. Lysates from granule cells were resolved by SDS-PAGE, and the blot was probed with an anti-phosphotyrosine antibody (4G10) after immunoprecipitation with anti-ErbB4 antibody. Tyrosine-phosphorylated bands of 180 kD were observed by stimulation (B). The conditioned media were collected from PN(non-transfected pontine neuclei neurons), tPN(transfected pontine neuclei neurons), GC(non-transfected granule cells), and tGC(transfected-granule cells). The result is summarized in C. The experiments were repeated independently three or four times.
# After electrical stimulation (1 mA, 30˜60V outside the cells) for 30 minutes on […] cells which were transfected with recombinant full length mNRG, the conditioned media obtained from the cells were collected and concentrated using centricon 10 and 100 (Millipore) to cut off large (>100 kd) and small (<10 kd) molecular weight proteins. […]
compound,measurement,setting,value
N#Cc1cc2[nH]c(=O)c(=O)[nH]c2cc1[N+](=O)[O-] [CNQX],"β2 transcription at 1.0 and 100 Hz stimulation, block",[1],blocked
[Cl-].[K+] [KC1],release of NRG by stimulation,[2],could not be observed
C[C@]12N[C@H](Cc3ccccc31)c1ccccc12 [MK801],"NR2C mRNA increase at 100 Hz (high frequency) stimulation, block","[3]; 30 minutes stimulation, TTX 1 μM, Cd 100 μM, EGTA 1 mM",strongly blocked
same,"NR2C elevated transcription at 1 and 100 Hz, block",[3]; FIG. 10C,strongly blocked
same,"β2 transcription at 1.0 and 100 Hz stimulation, block",[1],blocked
"CCCCCCCCCCCCCC(=O)O[C@@H]1[C@@H](C)[C@@]2(O)[C@@H](C=C(CO)C[C@]3(O)C(=O)C(C)=C[C@@H]23)[C@@H]2C(C)(C)[C@]12OC(C)=O [PMA, phorbol-12-myristate-13-acetate]",Tyrosine-phosphorylated bands of 180 kD with conditioned media from mNRG-transfected neurons,[4],clearly observed
